# What was measured:
# [1] = test system: HCT116 cells; experiment: Microarray gene expression of drug-treated cells versus mock-treated cells; type: cell-based, human; conditions: for expression response of the 11 hypermethylated guide genes: 300 nM TSA 18 hours or 5 μM DAC 96 hours
# Method: Cell culture and treatment. HCT116 cells and isogenic genetic knockout derivatives were maintained as previously described (Rhee et al^1). For drug treatments, log phase HCT116 cells were cultured in McCoys 5A media (Invitrogen) containing 10% BCS and 1× penicillin/streptomycin with 5 μM 5-aza-deoxycytidine (DAC) (Sigma; stock solution: 1 mM in PBS) for 96 hours, replacing media and DAC every 24 hours. Cell treatment with 300 nM Trichostatin A (Sigma; stock solution: 1.5 mM dissolved in Ethanol) was performed for 18 hours. Control cells underwent mock treatment in parallel with addition of equal volume of PBS without drugs.
# Microarray analysis. Total RNA was harvested from log phase cells using the Qiagen kit according to the manufacturers instructions, including a DNAase step. RNA was quantified using the Nanoprop ND-100 followed by quality assessment with 2100 Bioanalyzer (Agilent Technologies). RNA concentrations for individual samples were greater than 200 ng/ul, with 28 s/18 s ratios greater than 2.2 and RNA integrity numbers of 10. Sample amplification and labeling procedures were carried out using the Low RNA Input Fluorescent Linear Amplification Kit (Agilent Technologies) according to the manufacturers instructions. The labeled cRNA was purified using the RNeasy mini kit (Qiagen) and quantified. RNA spike-in controls (Agilent Technologies) were added to RNA samples before amplification. 0.75 microgram of samples labeled with Cy3 or Cy5 were mixed with control targets (Agilent Technologies), assembled on Oligo Microarray, hybridized, and processed according to the Agilent microarray protocol. Scanning was performed with the Agilent G2565BA microarray scanner under default settings recommended by Agilent Technologies.
# Data analysis. All arrays were subject to quality checks recommended by the manufacturer. […] The log ratio of red signal to green signal was calculated after background-subtraction and LoEss normalization as implemented in the limma package from Bioconductor (Smyth et al. 1; Smyth et al. 2). […]
# [2] = test system: colorectal cell lines; experiment: RT-PCR re-expression of Neuralized and FOXL2 in colorectal cancer cell lines; type: cell-based, human; conditions: DAC treatment, panel of colorectal cell lines
# Method: Cell culture and treatment. HCT116 cells and isogenic genetic knockout derivatives were maintained as previously described (Rhee et al^1). For drug treatments, log phase HCT116 cells were cultured in McCoys 5A media (Invitrogen) containing 10% BCS and 1× penicillin/streptomycin with 5 μM 5-aza-deoxycytidine (DAC) (Sigma; stock solution: 1 mM in PBS) for 96 hours, replacing media and DAC every 24 hours. Cell treatment with 300 nM Trichostatin A (Sigma; stock solution: 1.5 mM dissolved in Ethanol) was performed for 18 hours. Control cells underwent mock treatment in parallel with addition of equal volume of PBS without drugs. Methylation and gene expression analysis. RNA was isolated with TRIzolTM Reagent (Invitrogen) according to the manufacturer's instructions. For reverse transcription-PCR (RT-PCR), 1 μg of total RNA was reverse transcribed by using Ready-To-GoTM You-Prime First-Strand Beads (Amersham Biosciences) with addition of random hexamers (0.2 μg per reaction). […] For MSP analysis, DNA was extracted following a standard phenol-chloroform extraction method. Bisulfite modification of genomic DNA was carried out using the EZ DNA methylation KitTM (Zymo Research). […] MSP was performed as previously described (Herman et al.). […]
Compound,expression response of the 11 hypermethylated guide genes [1],"DAC induced expression for genes in the TSA non-response zone ([1]; 5 μM DAC, 96 hours) [fold]",re-expression of hypermethylated Neuralized and FOXL2 genes [2]
"Nc1ncn([C@H]2C[C@H](O)[C@@H](CO)O2)c(=O)n1 [DAC, 5-aza-deoxycytidine]","four (SFRP1, TFF2, TFF3, and CHFR) demonstrated re-expression responses near the top",> 2,ability to re-express the genes
"CC(/C=C/C(=O)NO)=C\[C@@H](C)C(=O)c1ccc(N(C)C)cc1 [TSA, Trichostatin A]",remained within the TSA non-responsive zone,–,–

# From US20080085867A1, “Early detection and prognosis of colon cancers” (The Johns Hopkins University, priority 2006, published 2008)
